# System: Collagen Antibody-Induced Arthritis (CAIA) model
# Experiment: CAIA model in mice, first study
# Type: in vivo
# Conditions: ten-day period; Humira 10 mg/kg bolus day 1; Lex 5.2 0.32 mg/kg/day i.p.; compared with stimulated untreated animals; Figure 11
# From the text: In light of the ability of cyclic peptides to alter the behaviour of macrophages, down-regulating TNF secretion both in vitro and in vivo, the investigation was extended to examine whether such peptides could have an impact on inflammatory diseases such as rheumatoid arthritis, where activation of macrophages, and secretion of TNF, is an important component. The CAIA model was chosen, as its use of lipopolysaccharide as one of the stimulants mirrors the models already employed. The other inducer of inflammation is a cocktail of anti-collagen antibodies, which are agents thought to contribute to disease in the human condition. A scheme of the experimental design is shown in Figure 8, and detailed methodology is provided in the Materials and Methods section of this article. […]
# A range of different parameters was measured, as follows: (i) clinical score—a subjective assessment of the number of joints in each paw affected; (ii) paw thickness—measurement of oedema in the paws, reflecting the severity of inflammation; (iii) TNF levels—rise in the bloodstream immediately after LPS administration; (iv) weight change—loss of weight resulting from inflammation. […]
substance,measurement,value
adalimumab [Humira],Change in weight,much reduced

# From article PMC6151468, “Efficacy of Bioactive Cyclic Peptides in Rheumatoid Arthritis: Translation from In Vitro to In Vivo Models” (Molecules : A Journal of Synthetic Chemistry and Natural …, 2017)
